Reference: patent publication US9475841B2, “Melanoma antigen peptide and uses thereof” (INSERM (INSTITUT NATIONAL DE LA SANTE ET DE LA RECHERCHE …, priority 2012, dated 2016)
Values belong to the compound of their own block, whether it stands above or below them. Residues, ends and D or L forms follow the SMILES beside them.

Tests used:
[1] = system: DRβ1*0101 restricted T cell clone 5F9; assay: Minimal peptides recognized by CD4 T cell clone (peptide titration, TNF-α production); assay type: cell-based, human; details: 5F9 T cell clone; 13-mer peptides
Method: FIG. 5: Minimal peptides recognized by MELOE-1 specific CD4 T cell clones. MELOE-1 specific CD4 T cell clones were incubated with various concentrations of the indicated peptides during 5 hours in presence of Brefeldin A. TNF-α production was assessed by intracellular labeling with an anti-TNF-α specific antibody. The core peptide sequence is indicated in bold on each figure panel, and black circles illustrate the best fitting peptide.
Our T cell clones were reactive against 20-mer peptides that are probably not the exact peptides naturally processed. In order to formally identify the minimal recognized epitopes, we tested shorter peptides derived from each of the MELOE-1 recognized regions, chosen on the basis of the core peptide sequence supposed to be recognized by the T cell clones (indicated in bold on FIG. 5).
Three shorter peptides were better recognized by the DQ2-restricted 9C12 T cell clone, the shortest one being MELOE-17-19 (13-mer), recognized with an EC50 of 100 nM. The deletion of the two amino acids in C-term strongly reduces T cell clone recognition. […] Nonetheless all of these clones recognized a series of shortened peptides, thus we cannot formally assess that the shortest ones will be the exact peptides naturally presented on class II molecules.

[2] = system: DQ2-restricted T cell clone 4E2
[3] = system: DRβ1*1101 restricted T cell clone 1A5; details: 5 h
[4] = system: DQ2-restricted 9C12 T cell clone; details: 5 h
[5] = system: MELOE-1 specific CD4 T cell clones; assay: Processing of epitopes by autologous DC loaded with antigen; TNF-α production of T cell clones; assay type: cell-based, human
Method: FIG. 4: Class II epitopes are naturally processed from MELOE-1 whole antigen. Autologous DC, were loaded (before or after fixation) with MELOE-12-46 (1 μM) or, as a negative control, with Melan-A16-40L peptide (1 μM), and matured. T cell clones were then stimulated with DC at a ratio 1:1, during 5 h in presence of Brefeldin A, then stained with APC-conjugated anti-CD3 mAb, fixed with 4% paraformaldehyde, labeled with PE-conjugated anti-TNF-α mAb and analyzed by flow cytometry. Histograms illustrated the % of TNF-α producing cells among CD3 positive T cells.
Monocytes were purified from PBMC of healthy donors by a CD14-enrichment kit, according the recommendations of the supplier (Stem Cell, France). Immature dendritic cells (iDC) were generated by culturing monocytes in RPMI supplemented with 20 mg/mL of human albumin, 1000 IU/mL of GM-CSF and 200 IU/mL of IL-4 for 5 days. Then, iDC were pulsed with the whole MELOE-1 (1 μM) protein or the modified Melan-A16-40 A27L as negative control (1 μM) and matured with 20 ng/mL of TNF-α and 50 μg/mL of PolyI:C for 4 hours at 37° C. Finally they were fixed for 1 minute with PBS/0.015% glutaraldehyde. Alternatively, iDC were first matured, fixed and then pulsed with antigens at the same concentration.
Alternatively, MELOE-1 specific CD4+ T cell clones were stimulated by autologous MELOE-1 loaded and matured DC at a 1:1 ratio. […]

Compound: TSREQFLPSEGAA [MELOE-111-23]
recognition by T cell clone [1]: optimal shorter peptides

Compound: SREQFLPSEGAAC [MELOE-112-24]
recognition by T cell clone [1]: optimal shorter peptides

Compound: RISSTLNDECWPA [32-44]
recognition by T cell clone ([2]; 4E2 T cell clone, compared with 31-44): recognized to a lower extent

EC50 [3]: 0.1 µM
Compound: CC(C)C[C@H](NC(=O)[C@H](Cc1ccccc1)NC(=O)[C@@H](N)CCC(N)=O)C(=O)N1CCC[C@H]1C(=O)N[C@@H](CO)C(=O)N[C@@H](CCC(=O)O)C(=O)NCC(=O)N[C@@H](C)C(=O)N[C@@H](C)C(=O)N[C@@H](CS)C(=O)N1CCC[C@H]1C(=O)N1CCC[C@H]1C(=O)N[C@@H](Cc1c[nH]c2ccccc12)C(=O)O [MELOE-115-27, QFLPSEGAACPPW] (H-QFLPSEGAACPPW-OH; N-terminus and C-terminus assumed)

EC50 ([2]; 5 h): 0.1 µM
Compound: CC[C@H](C)[C@H](NC(=O)[C@H](CCCNC(=N)N)NC(=O)[C@@H](N)CCC(=O)O)C(=O)N[C@@H](CO)C(=O)N[C@@H](CO)C(=O)N[C@H](C(=O)N[C@@H](CC(C)C)C(=O)N[C@@H](CC(N)=O)C(=O)N[C@@H](CC(=O)O)C(=O)N[C@@H](CCC(=O)O)C(=O)N[C@@H](CS)C(=O)N[C@@H](Cc1c[nH]c2ccccc12)C(=O)N1CCC[C@H]1C(=O)N[C@@H](C)C(=O)O)[C@@H](C)O [31-44, ERISSTLNDECWPA] (H-ERISSTLNDECWPA-OH; N-terminus and C-terminus assumed)

EC50 [4]: 0.1 µM
Compound: CC(C)C[C@H](NC(=O)[C@H](Cc1ccccc1)NC(=O)[C@H](CCC(N)=O)NC(=O)[C@H](CCC(=O)O)NC(=O)[C@H](CCCNC(=N)N)NC(=O)[C@H](CO)NC(=O)[C@@H](NC(=O)[C@H](C)NC(=O)[C@H](CCC(=O)O)NC(=O)[C@H](CC(=O)O)NC(=O)[C@@H]1CCCN1)[C@@H](C)O)C(=O)N1CCC[C@H]1C(=O)N[C@@H](CO)C(=O)O [MELOE-17-19, PDEATSREQFLPS] (H-PDEATSREQFLPS-OH; N-terminus and C-terminus assumed)

Compound: MSCVGYPDEATSREQFLPSEGAACPPWHPSERISSTLNDECWPASL [MELOE-1, MELOE-1 whole antigen (46 amino acids)]
recognition by specific CD4 T cell clones of DC loaded after fixation ([5]; autologous DC loaded after DC fixation): only a weak recognition | reactivity of the four T cell clones against loaded autologous DC ([5]; iDC loaded with 1 μM in serum-free medium, matured, then fixed): reactive
